In patent US20210038607A1, “OXADIAZOLYLTHIOPHENE DERIVATIVES USEFUL AS HISTONE DEACETYLASE INHIBITORS” (Karus Therapeutics Limited, priority 2018, published 2021) one finds IC50 data, which are given here for 13 compounds.

One assay concerns the target T1, Human HDAC1 (Homo sapiens, UniProt Q13547).
T1 construct: full length with C-terminal His-tag and C-terminal FLAG-tag; His (C); FLAG (C); host or cells: baculovirus expression system
Description: HDAC1 biochemical assay, AMC-labeled peptide substrate. To be noted: read-out: HDAC Isoform IC50 (nM) 1. Summed up:
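Two-step fluorogenic read: HDAC1 deacetylates 50 μM acetyl-lysine AMC peptide RHKK(Ac)AMC for 1 h at 30° C (pH 8.0, 1% DMSO, with compound), then developer digests the product for fluorescence at Ex/Em 360/460. Enzyme is full-length human, His/FLAG-tagged, insect-cell expressed, at 0.3 ng/ul.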

The target of the next assay is T2, Human HDAC2 (Homo sapiens, UniProt Q92769).
T2 construct: full length with C-terminal GST-tag; GST (C); host or cells: baculovirus expression system
Description: HDAC2 biochemical assay, AMC-labeled peptide substrate. Particulars: read-out: HDAC Isoform IC50 (nM) 2. The gist of the method: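 Full-length human HDAC2 with C-terminal GST tag, baculovirus-expressed, at 0.07 ng/ul with 50 μM RHKK(Ac)AMC substrate in Tris-HCl pH8.0 buffer with BSA, 1% DMSO final. Incubated 1 hour at 30° C with compounds, then developer added; fluorescence read at 360/460 Ex/Em.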

For the next assay, the target named is T3, Human HDAC8 (Homo sapiens, UniProt Q9BY41).
T3 construct: full length with C-terminal His tag, MW=42.6 kDa; His (C); host or cells: baculovirus expression system
T3 sequence (Q9BY41 1-377): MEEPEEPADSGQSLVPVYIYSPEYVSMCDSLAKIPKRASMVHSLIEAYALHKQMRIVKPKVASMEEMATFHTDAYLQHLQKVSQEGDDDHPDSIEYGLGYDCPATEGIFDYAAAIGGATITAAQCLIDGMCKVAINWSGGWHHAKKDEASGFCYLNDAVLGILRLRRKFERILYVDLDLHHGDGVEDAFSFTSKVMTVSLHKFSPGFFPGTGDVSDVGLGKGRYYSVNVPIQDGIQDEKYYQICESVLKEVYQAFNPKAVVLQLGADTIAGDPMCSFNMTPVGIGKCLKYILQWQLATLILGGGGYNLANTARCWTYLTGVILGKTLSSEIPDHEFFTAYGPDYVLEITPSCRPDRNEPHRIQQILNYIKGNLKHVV
Description: HDAC8 biochemical assay, AMC-labeled peptide substrate. To be noted: read-out: HDAC Isoform IC50 (nM) 8. Summed up:
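Two-step fluorogenic readout: compounds and enzyme deacetylate 100 µM RHK(Ac)K(Ac)AMC for 2 h at 30° C (pH8.0 Tris buffer, BSA, 1% DMSO final), then developer releases AMC, read at 360/460 Ex/Em. Enzyme: 1 ng/ul full-length His-tagged human HDAC8 from baculovirus.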

For another assay, the target named is T4, Human HDAC5 (Homo sapiens, UniProt Q9UQL6).
T4 construct: full length with C-terminal His tag, MW=51.1 kDa; His (C); host or cells: baculovirus expression system
Nature of the assay: HDAC5 biochemical assay, class IIa-specific substrate. Particulars: read-out: HDAC Isoform IC50 (nM) 5. Summed up: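 Two-step fluorogenic read-out: deacetylated trifluoroacetyl-lysine AMC substrate (50 μM) digested by developer, measured at Ex/Em 360/460. Deacetylation step: 0.05 ng/ul His-tagged full-length baculoviral enzyme with compound, 30 min, room temperature, pH 8.0 Tris with 1 mg/mL BSA and 1% DMSO.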

The target in another assay is T5, Human HDAC7 (Homo sapiens, UniProt Q8WUI4).
T5 construct: (a.a. 518-end) with N-terminal GST tag; GST (N); host or cells: baculovirus expression system
T5 sequence (Q8WUI4 518-952 limits assumed): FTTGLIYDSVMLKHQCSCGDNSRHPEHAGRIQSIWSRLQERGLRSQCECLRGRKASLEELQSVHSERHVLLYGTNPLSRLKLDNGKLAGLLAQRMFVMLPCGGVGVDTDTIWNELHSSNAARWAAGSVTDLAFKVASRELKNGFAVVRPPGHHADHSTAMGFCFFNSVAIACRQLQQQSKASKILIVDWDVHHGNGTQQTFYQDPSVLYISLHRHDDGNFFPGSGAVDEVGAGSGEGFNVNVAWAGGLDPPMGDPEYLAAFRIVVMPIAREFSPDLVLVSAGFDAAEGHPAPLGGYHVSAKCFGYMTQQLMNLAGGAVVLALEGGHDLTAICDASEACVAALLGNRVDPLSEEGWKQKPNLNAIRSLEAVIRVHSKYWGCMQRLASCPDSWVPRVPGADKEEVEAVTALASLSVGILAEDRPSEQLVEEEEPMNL
Nature of the assay: HDAC7 biochemical assay, class IIa-specific substrate. Particulars: read-out: HDAC Isoform IC50 (nM) 7. Summed up: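 Two-step fluorogenic readout: class IIa-selective trifluoroacetyl-lysine AMC substrate (50 μM) deacetylated by N-terminal GST-HDAC7 fragment (0.001 ng/ul), then digested by developer, Ex/Em 360/460. Reaction: 30 min, room temperature, Tris-HCl pH 8.0, NaCl/KCl/MgCl2, 1 mg/mL BSA, 1% DMSO.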

The IC50 is the concentration needed to halve the response being measured.

T4 sequence (Q9UQL6 656-1122 limits assumed): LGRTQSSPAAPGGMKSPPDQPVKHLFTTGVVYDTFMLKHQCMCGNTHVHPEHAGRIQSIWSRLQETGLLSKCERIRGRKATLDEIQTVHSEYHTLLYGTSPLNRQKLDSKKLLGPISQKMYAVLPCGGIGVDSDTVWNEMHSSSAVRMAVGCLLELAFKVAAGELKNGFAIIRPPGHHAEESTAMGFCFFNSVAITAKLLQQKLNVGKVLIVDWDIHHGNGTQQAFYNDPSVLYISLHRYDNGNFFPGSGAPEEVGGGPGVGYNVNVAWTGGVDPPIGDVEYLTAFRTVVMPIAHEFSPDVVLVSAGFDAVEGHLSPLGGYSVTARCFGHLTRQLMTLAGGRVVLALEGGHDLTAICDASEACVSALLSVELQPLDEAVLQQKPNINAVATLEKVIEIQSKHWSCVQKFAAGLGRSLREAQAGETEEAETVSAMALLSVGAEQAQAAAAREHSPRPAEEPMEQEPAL
T1 sequence (Q13547 whole entry): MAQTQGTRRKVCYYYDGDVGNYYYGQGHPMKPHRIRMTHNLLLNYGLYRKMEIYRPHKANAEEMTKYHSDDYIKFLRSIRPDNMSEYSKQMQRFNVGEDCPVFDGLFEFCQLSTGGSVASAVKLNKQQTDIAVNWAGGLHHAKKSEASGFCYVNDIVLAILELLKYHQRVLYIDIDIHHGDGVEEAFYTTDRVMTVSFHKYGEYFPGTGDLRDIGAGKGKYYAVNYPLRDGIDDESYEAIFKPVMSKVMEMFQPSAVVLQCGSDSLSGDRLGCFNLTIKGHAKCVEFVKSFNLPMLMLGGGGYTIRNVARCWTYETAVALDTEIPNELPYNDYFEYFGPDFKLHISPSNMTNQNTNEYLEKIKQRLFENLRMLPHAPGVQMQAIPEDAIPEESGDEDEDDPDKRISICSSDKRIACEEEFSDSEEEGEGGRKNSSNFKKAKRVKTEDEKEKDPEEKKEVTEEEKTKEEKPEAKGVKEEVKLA
T2 sequence (Q92769 whole entry): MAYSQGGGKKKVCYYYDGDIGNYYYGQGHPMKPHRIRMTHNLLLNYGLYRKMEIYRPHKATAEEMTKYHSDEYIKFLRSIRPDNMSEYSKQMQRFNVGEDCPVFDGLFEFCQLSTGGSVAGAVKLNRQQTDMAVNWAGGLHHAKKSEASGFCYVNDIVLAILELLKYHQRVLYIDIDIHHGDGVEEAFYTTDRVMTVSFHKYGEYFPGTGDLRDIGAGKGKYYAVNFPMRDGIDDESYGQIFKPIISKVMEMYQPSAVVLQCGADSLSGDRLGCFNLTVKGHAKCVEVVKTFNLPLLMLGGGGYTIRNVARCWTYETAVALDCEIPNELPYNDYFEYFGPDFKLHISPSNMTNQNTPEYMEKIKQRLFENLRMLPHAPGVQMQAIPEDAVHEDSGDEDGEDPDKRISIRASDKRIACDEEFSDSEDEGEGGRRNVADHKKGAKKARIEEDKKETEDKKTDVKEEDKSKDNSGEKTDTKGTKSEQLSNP

`CN(C(=O)c1cnnc(N(Cc2ccc(-c3noc(C(F)(F)F)n3)s2)c2cnccn2)c1)S(C)(=O)=O` [Example GE, N-Methanesulfonyl-N-methyl-6-[(pyrazin-2-yl)({5-[5-(trifluoromethyl)-1,2,4-oxadiazol-3-yl]thiophen-2-yl}methyl)amino]pyridazine-4-carboxamide]: the IC50 on Human HDAC1 is greater than 10000 nM; on Human HDAC2 it was greater than 10000 nM; at Human HDAC8, no more than 10000 nM; on Human HDAC5, no more than 1000 nM; at Human HDAC7, no more than 1000 nM.
Regarding `O=C(c1cnnc(N(Cc2ccc(-c3noc(C(F)(F)F)n3)s2)c2cnccn2)c1)N1CCC12COC2` [Example GF, 5-{6-Oxa-1-azaspiro[3.3]heptane-1-carbonyl}-N-(pyrazin-2-yl)-N-({5-[5-(trifluoromethyl)-1,2,4-oxadiazol-3-yl]thiophen-2-yl}methyl)pyridazin-3-amine], the 50% inhibitory concentration (IC50) on Human HDAC1 is greater than 10000 nM; at Human HDAC2, greater than 10000 nM; on Human HDAC8, no more than 10000 nM; on Human HDAC5, no more than 500 nM; at Human HDAC7 it was no more than 10000 nM.
Regarding `FC(F)(F)c1nc(-c2ccc(CN(c3cnccn3)c3cc(CN4CCCC4)ccn3)s2)no1` [Example GG, N-{4-[(Pyrrolidin-1-yl)methyl]pyridin-2-yl}-N-({5-[5-(trifluoromethyl)-1,2,4-oxadiazol-3-yl]thiophen-2-yl}methyl)pyrazin-2-amine], the half-maximal inhibitory concentration (IC50) on Human HDAC1 was greater than 10000 nM; at Human HDAC2, greater than 10000 nM; at Human HDAC8, no more than 10000 nM; on Human HDAC5, no more than 1000 nM; at Human HDAC7, no more than 1000 nM.
Take `COC1CN(Cc2ccnc(N(Cc3ccc(-c4noc(C(F)(F)F)n4)s3)c3cnccn3)c2)C1` [Example GH, N-{4-[(3-Methoxyazetidin-1-yl)methyl]pyridin-2-yl}-N-({5-[5-(trifluoromethyl)-1,2,4-oxadiazol-3-yl]thiophen-2-yl}methyl)pyrazin-2-amine]: the IC50 at Human HDAC1 is greater than 10000 nM; at Human HDAC2 it was greater than 10000 nM; on Human HDAC8, no more than 10000 nM; on Human HDAC5, no more than 1000 nM; on Human HDAC7, no more than 10000 nM.
Regarding `FC(F)(F)c1nc(-c2ccc(CN(c3cnccn3)c3cc(CN4CCOCC4)ccn3)s2)no1` [Example GI, N-{4-[(Morpholin-4-yl)methyl]pyridin-2-yl}-N-({5-[5-(trifluoromethyl)-1,2,4-oxadiazol-3-yl]thiophen-2-yl}methyl)pyrazin-2-amine], the concentration for half-maximal inhibition (IC50) is greater than 10000 nM on Human HDAC1; greater than 10000 nM at Human HDAC2; no more than 10000 nM on Human HDAC8; no more than 10000 nM at Human HDAC5; no more than 10000 nM on Human HDAC7.
`O=C(c1cnnc(N(Cc2ccc(-c3noc(C(F)(F)F)n3)s2)c2cnccn2)c1)N1CC(C(F)(F)F)C1` [Example GJ, N-(Pyrazin-2-yl)-N-({5-[5-(trifluoromethyl)-1,2,4-oxadiazol-3-yl]thiophen-2-yl}methyl)-5-[3-(trifluoromethyl)azetidine-1-carbonyl]pyridazin-3-amine]: the half-inhibitory concentration (IC50) on Human HDAC1 was greater than 10000 nM; on Human HDAC2 it was greater than 10000 nM; on Human HDAC8 it was no more than 10000 nM; on Human HDAC5 it was no more than 10000 nM; on Human HDAC7, no more than 1000 nM.
As for `O=C(c1cnnc(N(Cc2ccc(-c3noc(C(F)(F)F)n3)s2)c2cnccn2)c1)N1CC(C(F)F)C1` [Example GK, 5-[3-(Difluoromethyl)azetidine-1-carbonyl]-N-(pyrazin-2-yl)-N-({5-[5-(trifluoromethyl)-1,2,4-oxadiazol-3-yl]thiophen-2-yl}methyl)pyridazin-3-amine], the IC50 was no more than 10000 nM on Human HDAC1; greater than 10000 nM on Human HDAC2; no more than 10000 nM on Human HDAC8; no more than 1000 nM at Human HDAC5; no more than 500 nM at Human HDAC7.
Take `COC1(C(F)(F)F)CN(C(=O)c2cnnc(N(Cc3ccc(-c4noc(C(F)(F)F)n4)s3)c3cnccn3)c2)C1` [Example GL, 5-[3-Methoxy-3-(trifluoromethyl)azetidine-1-carbonyl]-N-(pyrazin-2-yl)-N-({5-[5-(trifluoromethyl)-1,2,4-oxadiazol-3-yl]thiophen-2-yl}methyl)pyridazin-3-amine]: the IC50 at Human HDAC1 is no more than 10000 nM; at Human HDAC2 it was greater than 10000 nM; at Human HDAC8, no more than 10000 nM; on Human HDAC5, no more than 1000 nM; on Human HDAC7 it was no more than 10000 nM.
In the case of `FC(F)(F)c1nc(-c2ccc(CN(c3cnccn3)c3cc(-c4ccccn4)cnn3)s2)no1` [Example GM, N-(Pyrazin-2-yl)-5-(pyridin-2-yl)-N-({5-[5-(trifluoromethyl)-1,2,4-oxadiazol-3-yl]thiophen-2-yl}methyl)pyridazin-3-amine], the half-inhibitory concentration (IC50) on Human HDAC1 is greater than 10000 nM; at Human HDAC2, greater than 10000 nM; at Human HDAC8, no more than 10000 nM; on Human HDAC5, no more than 10000 nM; on Human HDAC7 it was no more than 500 nM.
`Cc1cnnc(N(Cc2ccc(-c3noc(C(F)(F)F)n3)s2)c2cnccn2)c1` [Example GN, 5-Methyl-N-(pyrazin-2-yl)-N-({5-[5-(trifluoromethyl)-1,2,4-oxadiazol-3-yl]thiophen-2-yl}methyl)pyridazin-3-amine]: the IC50 was greater than 10000 nM at Human HDAC1; greater than 10000 nM on Human HDAC2; no more than 10000 nM on Human HDAC8; no more than 1000 nM at Human HDAC5; no more than 1000 nM at Human HDAC7.
Consider `NC(=O)c1nccnc1N(Cc1ccc(-c2noc(C(F)(F)F)n2)s1)c1cnccn1` [Example GO, 3-[(Pyrazin-2-yl)({5-[5-(trifluoromethyl)-1,2,4-oxadiazol-3-yl]thiophen-2-yl}methyl)amino]pyrazine-2-carboxamide], for which the IC50 was greater than 10000 nM at Human HDAC1; greater than 10000 nM at Human HDAC2; no more than 10000 nM at Human HDAC8; no more than 10000 nM at Human HDAC5; no more than 10000 nM at Human HDAC7.
With `O=C(c1nccnc1N(Cc1ccc(-c2noc(C(F)(F)F)n2)s1)c1cnccn1)N1CCC1` [Example GP, 3-(Azetidine-1-carbonyl)-N-(pyrazin-2-yl)-N-({5-[5-(trifluoromethyl)-1,2,4-oxadiazol-3-yl]thiophen-2-yl}methyl)pyrazin-2-amine], the 50% inhibitory concentration (IC50) was greater than 10000 nM at Human HDAC1; greater than 10000 nM at Human HDAC2; no more than 10000 nM on Human HDAC8; no more than 10000 nM on Human HDAC5; no more than 10000 nM on Human HDAC7.
As to `O=C(c1nccnc1N(Cc1ccc(-c2noc(C(F)(F)F)n2)s1)c1cnccn1)N1CC(O)(C(F)(F)F)C1` [Example GQ, 1-{3-[(Pyrazin-2-yl)({5-[5-(trifluoromethyl)-1,2,4-oxadiazol-3-yl]thiophen-2-yl}methyl)amino]pyrazine-2-carbonyl}-3-(trifluoromethyl)azetidin-3-ol], the IC50 on Human HDAC1 was greater than 10000 nM; on Human HDAC2, greater than 10000 nM; on Human HDAC8, no more than 10000 nM; on Human HDAC5, no more than 10000 nM; at Human HDAC7 it was no more than 10000 nM.
